The nature of series [1]: Tablet dissolution over time in media of various pH. It is filed as physicochemical. As to conditions: for Dependence of dissolution on pH of the medium: oral dosage form, pH 1 to 6.8 and deionized water; for Fraction of tablet dissolved / Dissolution: tablet. The procedure: The dissolution media used were (a) pH 1 (0.1N HCl) 50 ml of cone HCl mixed in 6 L of water; (b) pH 4.5 acetate buffer (20 mM) […] of sodium acetate trihydrate dissolved in 6 L of water, pH adjusted to 4.5 with acetic acid; (c) pH 5.5 phosphate buffer (20 mM) 16.3 g of potassium dihydrogen phosphate in 6 L of water. pH adjusted to 5.5 with NaOH; (d) pH 6.8 phosphate buffer (20 mM) 16.3 g of potassium dihydrogen phosphate in 6 L of water. pH adjusted 6.8 with NaOH. A standard dissolution protocol was used. The standard solution (0.006 mg/mL of eszopiclone free base) was prepared by weighing a known amount (˜20 mg) of the free base into a 100 mL volumetric flask. 10 mL of acetonitrile was added into the flask and sonicated until the solids dissolved completely. The solution was cooled to room temperature and made up to the 100 mL mark using media and mixed well. Dilute 3 mL to 100 mL using media. The tables were prepared by transferring 500 mL dissolution media into the 6 vessels. Blank readings were taken for all the probes using media. Standards were read for individual vessels. Probes were washed with media and then inserted back into each vessel. One tablet was transferred into each vessel. The dissolution program was started immediately and readings were taken at 305 nm for 60 min (every 1 min for 20 min and then every 10 min).
FIG. 1 depicts dissolution profiles of the eszopiclone free base at pH 1 (0.1N HCl), pH 4.5 in buffer, pH 5.5 in buffer, pH 6.8 in buffer and in deionized water. […] It can be seen that the dissolution is greater than 50% within five minutes and greater than 80% at one hour at all pH.

The nature of series [2]: Aqueous solubility (24 hour equilibrated suspension in water, HPLC). It is filed as physicochemical. As to conditions: for pH measured at saturation: saturated suspension in water. On the procedure:
The aliquot was diluted and analyzed by HPLC (Waters). The data was compared to a standard curve generated from a set of solutions of known concentrations. The standard curve and the samples were analyzed using a HPLC using the following conditions: […]

Consider two compounds from patent publication US8269005B2 (Sunovion Pharmaceuticals Inc., priority 2007, dated 2012).

SMILES strings stand for the structures.

Consider `CN1CCN(C(=O)O[C@H]2c3nccnc3C(=O)N2c2ccc(Cl)cn2)CC1` [Free base, [(9S)-8-(5-chloropyridin-2-yl)-7-oxo-2,5,8-triazabicyclo[4.3.0]nona-1,3,5-trien-9-yl]-4-methyl piperazine-1-carboxylate], for which the “Dependence of dissolution on pH of the medium” value in series [1] (listed as eszopiclone free base) is “decreases markedly as the pH rises”. Moreover, the “Fraction of tablet dissolved” value was “less than one half” in series [1] (deionized water, at one hour) and “less than one half” in series [1] (pH 6.8 buffer, at one hour). For the same compound, the Dissolution entry in series [1] (pH 1 (0.1N HCl)) was “rapid and complete”. The “pH measured at saturation” value in series [2] turned out to be 7.6. Besides, the Solubility in series [2] (water, ambient, equilibrated 24 hour) is recorded as 0.2^1 mgA/mL.
For the compound `CN1CCN(C(=O)O[C@H]2c3nccnc3C(=O)N2c2ccc(Cl)cn2)CC1` [L-malate, (S)-Zopiclone L-Malate], in series [1] (listed as L-malate salt), the “Dependence of dissolution on pH of the medium” value was “dissolve quickly and at substantially the same rate, regardless of the pH of the dissolving medium”. Further, the Dissolution entry in series [1] (at one hour, all pH (pH 1, 4.5, 5.5, 6.8, deionized water)) is recorded as “greater than 80%”; in series [1] (within five minutes, all pH (pH 1, 4.5, 5.5, 6.8, deionized water)), “greater than 50%”. Also, in series [2], the “pH measured at saturation” value was determined as 3.9.
